The values below are quoted from earlier work in patent US20240264148A1, “SYSTEM AND METHOD OF IDENTIFYING BIOMARKERS FOR CHEMO-RESISTANCE IN CANCER AND IDENTIFYING TARGETS THAT CAN REVERSE CHEMO-RESISTANCE IN CANCER” (OROC, priority 2019, published 2024).

This data set relates to recurrent ovarian cancer. The settings on record: patients.

As for `Cc1nc(Nc2ncc(C(=O)Nc3c(C)cccc3Cl)s2)cc(N2CCN(CCO)CC2)n1` [Dasatinib], the safety and tolerability entry was “safe to use as a drug with good tolerability”.
